Consider 13 compounds from patent US12122778B2, “Activating pyruvate kinase R” (Novo Nordisk Health Care AG, priority 2018, dated 2024).

Read-outs that look alike come from different tables or passages of the source.

Test [1] has as its target PKR(G332S) (Homo sapiens, UniProt P30613, G332S). The experiment in a line: Luminescence Biochemical Assay (Kinase Glo Plus), PKR G332S mutant. The settings on record: with FBP; for activation at 1.54 µM: 1.54 μM compound, read-out: AC50 LUM KGP FBP % Fold@1.54 μM mean; for Emax: read-out: AC50 LUM KGP FBP MAX % FOLD mean. The method, then: (§1) In some embodiments, a PKR Activating Compound can have: (1) an AC50 value of less than 0.1 μM (e.g., compounds with AC50 values of “+++” in Table 13), 0.1-1.0 μM (e.g., compounds with AC50 values of “++” in Table 13), or 1.01-40 μM (e.g., compounds with AC50 values of “+” in Table 13); (2) a MAX % Fold of 75%-250%, 250-500%, or 75%-500%; and/or (3) a % Fold@1.54 μM of 75%-250%, 250-500%, or 75%-500%. In some embodiments, a PKR Activating Compound has (1) an AC50 value of less than 1.0 μM; (2) a MAX % Fold of 75%-500%; and/or (3) a % Fold@1.54 μM of 75%-500%.
(§2) The phosphorylation of Adenosine-5′-diphosphate (ADP) by various mutants of PKR was determined by the Kinase Glo Plus Assay (Promega) in the presence or absence of FBP [D-Fructose-1,6-diphosphate; BOC Sciences, CAS: 81028-91-3] as follows. Unless otherwise indicated, all reagents were purchased from Sigma-Aldrich. All reagents were prepared in buffer containing 50 mM Tris-HCl, 100 mM KCl, 5 mM MgCl2, and 0.01% Triton X100, 0.03% BSA, and 1 mM DTT. Enzyme and PEP [Phospho(enol) pyruvic acid] were added at 2× to all wells of an assay-ready plate containing serial dilutions of test compounds or DMSO vehicle. Final enzyme concentrations for PKR(wt), PKR(R510Q), and PKR(G332S) were 0.8 nM, 0.8 nM, and 10 nM respectively. Final PEP concentration was 100 μM. The Enzyme/PEP mixture was incubated with compounds for 30 minutes at RT before the assay was initiated with the addition of 2×ADP [Adenosine-5′-diphosphate] and KinaseGloPlus. Final concentration of ADP was 100 μM. […] For assays containing FBP, that reagent is added at 30 μM upon reaction initiation. Reactions were allowed to progress for 45 minutes at RT until luminescence was recorded by the BMG PHERAstar FS Multilabel Reader. All compounds were tested in triplicate at concentrations ranging from 42.5 μM to 2.2 nM in 0.83% DMSO.
(§3) Luminescence values were converted to % Fold increase by normalizing to the average of the DMSO control and multiplying by 100. Max, min, slope and AC50 were determined by the standard four parameter fit algorithm of ActivityBase XE Runner. Compounds were evaluated with three parameters—AC50, MAX % Fold, and % Fold@1.54 μM (FIG. 1). The AC50 value for a compound is the concentration (μM) corresponding to the midway between the maximum and minimum values of the four parameter logistic curve fit (i.e., at which the % fold increase along the four parameter logistic curve fit is halfway between MAX % Fold and MIN % Fold (% Fold Midpoint)), MAX % Fold is the highest fold increase observed at any concentration of compound, and % Fold@1.54 μM is the fold increase at a compound concentration of 1.54 μM. The parameter % Fold@1.54 μM was selected to capture elements of both the AC50 and MAX % Fold and to provide a ranking based on both potency and effect. The compound concentration of 1.54 μM was chosen as one that can optimally differentiate the set of compounds based on the range of activities observed.
(§4) As set forth in Table 13 below, AC50 values (columns A, D, G) are defined as follows: ≤0.1 μM (+++); >0.1 μM and ≤1.0 μM (++); >1.0 μM and ≤40 μM (+); >40 μM (0). Max % FOLD values (columns B, E, H) are defined as follows: ≤75% (+); >75% and ≤250% (++); >250% and ≤500% (+++). % Fold@1.54 μM values (columns C, F, J) are defined as follows: ≤75% (+); >75% and ≤250% (++); >250% and ≤50000 (+++).

The target in test [2] is PKR(R510Q) (Homo sapiens, UniProt P30613, R510Q). The experiment in a line: Luminescence Biochemical Assay (Kinase Glo Plus), PKR R510Q mutant. The following applies: without FBP; for activation at 1.54 µM: 1.54 μM compound, read-out: AC50 LUM KGP woFBP % Fold@1.54 μM mean; for Emax: read-out: AC50 LUM KGP woFBP MAX % FOLD mean. The method, then: as §1, §2, §3, §4
PKR(R510Q), sequence (P30613 whole entry R510Q): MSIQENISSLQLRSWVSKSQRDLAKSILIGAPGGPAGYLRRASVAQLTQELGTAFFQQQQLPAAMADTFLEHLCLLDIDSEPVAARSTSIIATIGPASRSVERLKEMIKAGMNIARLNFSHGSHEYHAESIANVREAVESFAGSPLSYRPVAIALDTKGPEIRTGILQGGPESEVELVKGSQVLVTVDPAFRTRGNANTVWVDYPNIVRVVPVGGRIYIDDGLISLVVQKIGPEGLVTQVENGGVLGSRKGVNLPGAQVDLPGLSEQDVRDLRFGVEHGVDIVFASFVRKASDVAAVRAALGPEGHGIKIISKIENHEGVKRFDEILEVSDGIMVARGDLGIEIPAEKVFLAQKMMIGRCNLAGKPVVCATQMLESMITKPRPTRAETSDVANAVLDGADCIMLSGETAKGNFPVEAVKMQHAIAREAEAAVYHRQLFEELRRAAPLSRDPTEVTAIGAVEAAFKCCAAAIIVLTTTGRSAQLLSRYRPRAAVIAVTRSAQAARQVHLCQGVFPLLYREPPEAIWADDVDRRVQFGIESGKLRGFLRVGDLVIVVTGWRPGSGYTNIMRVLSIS
In test [3] the target is PKR(wt) (Homo sapiens, UniProt P30613). The experiment in a line: Luminescence Biochemical Assay (Kinase Glo Plus), wild type PKR. The settings on record: without FBP; for activation at 1.54 µM: 1.54 μM compound, read-out: AC50 LUM KGP woFBP % Fold@1.54 μM mean; for AC50: read-out: AC50 LUM KGP woFBP AC50 μM gmean; for Emax: read-out: AC50 LUM KGP woFBP MAX % FOLD mean.
PKR(wt), sequence (P30613 whole entry): as the sequence (P30613 whole entry R510Q) above, with Q510R counted along it
Setting [4] is: read-out: AC50 LUM KGP FBP AC50 μM gmean (column A).
[5] abbreviates: read-out: AC50 LUM KGP woFBP AC50 μM gmean.

PKR(G332S), sequence (P30613 whole entry G332S): as the sequence (P30613 whole entry R510Q) above, with G332S, Q510R counted along it

Consider `C[C@@H](C(=O)N1CC2=C(C1)CN(S(=O)(=O)c1c[nH]c3c(Cl)nccc13)C2)c1ccccc1` [Example 25], for which the AC50 fell in the range of 1 to 40 µM in test [1] (gmean, read-out: A - AC50 LUM KGP FBP AC50 μM gmean) and 1 to 40 µM in test [2] (gmean, read-out: D - AC50 LUM KGP woFBP AC50 μM gmean).

Regarding `Cc1cc(CNC(=O)N2CC3=C(C2)CN(S(=O)(=O)c2cccnc2)C3)no1` [Example 21-38, N-[(5-methyl-1,2-oxazol-3-yl)methyl]-5-(pyridine-3-sulfonyl)-1H,2H,3H,4H,5H,6H-pyrrolo[3,4-c]pyrrole-2-carboxamide], the activation at 1.54 µM in test [1] and in test [2] was 75 to 250% in each case. Besides, the AC50 in test [1] (setting [4]) and in test [2] (setting [5]) was 1 to 40 µM each time. In addition, the Emax in test [1] fell in the range of 75 to 250%; in test [2], 250 to 500%.

With `O=C(NCc1cnco1)N1CC2=C(C1)CN(S(=O)(=O)c1ccc(F)cc1)C2` [Example 5-1, 5-(4-Fluorophenylsulfonyl)-N-(oxazol-5-ylmethyl)-3,4,5,6-tetrahydropyrrolo[3,4-c]pyrrole-2(1H)-carboxamide], the activation at 1.54 µM in test [1] and in test [2] was 75 to 250% throughout. The AC50 lay in the range of 0.1 to 1 µM in test [1] (setting [4]) and 1 to 40 µM in test [2] (setting [5]). Besides, the Emax in test [1] and in test [2] was 75 to 250% each time.

On to `O=C(NCc1ccc(F)cc1)N1CC2=C(C1)CN(S(=O)(=O)c1cccc3nonc13)C2` [Example 20-24, 5-(2,1,3-Benzoxadiazole-4-sulfonyl)-N-[(4-fluorophenyl)methyl]-1H,2H,3H,4H,5H,6H-pyrrolo[3,4-c]pyrrole-2-carboxamide], for which the activation at 1.54 µM in test [1] and in test [2] was 75 to 250% each time. For the same compound, the AC50 in test [1] (setting [4]) lay in the range of 1 to 40 µM; in test [2] (setting [5]), 0.1 to 1 µM. For the same compound, the Emax in test [1] was 75 to 250%; in test [2], 250 to 500%.

As for `O=C([C@H](O)c1ccccc1)N1CC2=C(C1)CN(S(=O)(=O)c1ccc(F)cc1F)C2` [Example 18-18, (2R)-1-[5-(2,4-difluorobenzenesulfonyl)-1H,2H,3H,4H,5H,6H-pyrrolo[3,4-c]pyrrol-2-yl]-2-hydroxy-2-phenylethan-1-one], in test [2], the activation at 1.54 µM is 250 to 50000% and the Emax lay within 250 to 500%. For the same compound, the AC50 in test [2] (setting [5]) was 0.1 to 1 µM. In addition, in test [3], the activation at 1.54 µM lay within 75 to 250%, the AC50 is no more than 0.1 µM and the Emax was in the range of 75 to 250%.

`Cc1ccc(F)c(S(=O)(=O)N2CC3=C(CN(C(=O)[C@H](O)c4ccccc4)C3)C2)c1` [Example 18-16, (2R)-1-[5-(2-fluoro-5-methylbenzenesulfonyl)-1H,2H,3H,4H,5H,6H-pyrrolo[3,4-c]pyrrol-2-yl]-2-hydroxy-2-phenylethan-1-one]: in test [2], the activation at 1.54 µM lay within 250 to 50000% and the Emax lay within 250 to 500%. Further, the AC50 in test [2] (setting [5]) is no more than 0.1 µM. In addition, in test [3], the activation at 1.54 µM fell in the range of 75 to 250%, the AC50 is no more than 0.1 µM and the Emax fell in the range of 75 to 250%.

`O=C([C@H](O)c1ccccc1)N1CC2=C(C1)CN(S(=O)(=O)c1ccc(C(F)(F)F)cc1)C2` [Example 18-11, (2R)-2-hydroxy-2-phenyl-1-{5-[4-(trifluoromethyl)benzene-sulfonyl]-1H,2H,3H,4H,5H,6H-pyrrolo[3,4-c]pyrrol-2-yl}ethan-1-one]: in test [2], the activation at 1.54 µM lay in the range of 75 to 250% and the Emax was in the range of 250 to 500%. For the same compound, in test [2] (setting [5]), the AC50 was in the range of 1 to 40 µM. In test [3], the activation at 1.54 µM lay within 75 to 250%, the AC50 fell in the range of 0.1 to 1 µM and the Emax is 75 to 250%.

With `O=C(C1OCCc2ccccc21)N1CC2=C(C1)CN(S(=O)(=O)c1ccc(OC(F)F)cc1)C2` (centres unmarked) [Example 18-33, 2-[4-(Difluoromethoxy)benzenesulfonyl]-5-(3,4-dihydro-1H-2-benzopyran-1-carbonyl)-1H,2H,3H,4H,5H,6H-pyrrolo[3,4-c]pyrrole], the activation at 1.54 µM in test [2] and in test [3] was 75 to 250% throughout. The AC50 in test [2] (setting [5]) and in test [3] was 1 to 40 µM throughout. The Emax in test [2] and in test [3] was 250 to 500% each time.

Take `Cc1cc(CNC(=O)N2CC3=C(C2)CN(S(=O)(=O)c2ccc(OC(F)F)cc2)C3)no1` [Example 21-5, 5-[4-(Difluoromethoxy)benzenesulfonyl]-N-[(5-methyl-1,2-oxazol-3-yl)methyl]-1H,2H,3H,4H,5H,6H-pyrrolo[3,4-c]pyrrole-2-carboxamide]: in test [2], the activation at 1.54 µM was in the range of 250 to 50000% and the Emax was 250 to 500%. Moreover, in test [2] (setting [5]), the AC50 lay within 0.1 to 1 µM. Also, in test [3], the activation at 1.54 µM fell in the range of 250 to 50000%, the AC50 lay within 0.1 to 1 µM and the Emax fell in the range of 250 to 500%.

In the case of `O=C(NCc1ncco1)N1CC2=C(C1)CN(S(=O)(=O)c1ccc3ncsc3c1)C2` [Example 21-29, 5-(1,3-Benzothiazole-6-sulfonyl)-N-(1,3-oxazol-2-ylmethyl)-1H,2H,3H,4H,5H,6H-pyrrolo[3,4-c]pyrrole-2-carboxamide], the activation at 1.54 µM in test [2] was in the range of 75 to 250%; in test [3], 250 to 50000%. In addition, the AC50 in test [2] (setting [5]) and in test [3] was 0.1 to 1 µM throughout. The figures for the Emax in test [2] and in test [3] were 75 to 250% and 250 to 500%, respectively.

For the compound `Cc1cccc(CNC(=O)N2CC3=C(C2)CN(S(=O)(=O)c2ccc4ncsc4c2)C3)n1` [Example 21-32, 5-(1,3-Benzothiazole-6-sulfonyl)-N-[(6-methylpyridin-2-yl)methyl]-1H,2H,3H,4H,5H,6H-pyrrolo[3,4-c]pyrrole-2-carboxamide], in test [2], the activation at 1.54 µM lay in the range of 250 to 50000% and the Emax lay in the range of 250 to 500%. In addition, the AC50 in test [2] (setting [5]) was 0.1 to 1 µM. Moreover, in test [3], the activation at 1.54 µM was 250 to 50000%, the half-maximal activity concentration (AC50) was 0.1 to 1 µM and the Emax lay in the range of 250 to 500%.

As to `O=C([C@H](O)c1ccccc1)N1CC2=C(C1)CN(S(=O)(=O)c1ccc(C(F)(F)F)nc1)C2` [Example 18-14, (2R)-2-hydroxy-2-phenyl-1-(5-{[6-(trifluoromethyl)pyridin-3-yl]sulfonyl}-1H,2H,3H,4H,5H,6H-pyrrolo[3,4-c]pyrrol-2-yl)ethan-1-one], the activation at 1.54 µM in test [2] and in test [3] was 75 to 250% each time. For the same compound, the AC50 in test [2] (setting [5]) and in test [3] was 1 to 40 µM each time. In addition, the Emax in test [2] and in test [3] was 75 to 250% in each case.

As for `Cc1cc(CNC(=O)N2CC3=C(C2)CN(S(=O)(=O)c2ccc(OC(F)F)cc2)C3)on1` [Example 21-6, 5-[4-(Difluoromethoxy)benzenesulfonyl]-N-[(3-methyl-1,2-oxazol-5-yl)methyl]-1H,2H,3H,4H,5H,6H-pyrrolo[3,4-c]pyrrole-2-carboxamide], in test [2], the activation at 1.54 µM fell in the range of 250 to 50000% and the Emax fell in the range of 250 to 500%. The AC50 in test [2] (setting [5]) lay in the range of 0.1 to 1 µM. For the same compound, in test [3], the activation at 1.54 µM was 250 to 50000%, the AC50 lay within 0.1 to 1 µM and the Emax is 250 to 500%.
